How the values were obtained:
[1] = target: T1, Orexin type 1 (OX1R) receptor (Homo sapiens, UniProt O43613); assay: In vitro orexin antagonism assay: intracellular calcium measurement (FLIPR), orexin-A 3 nM as agonist; assay type: cell-based; details: for IC50: first value of IC50/Kb cell; for inhibition at 1 µM: read-out: OX1R, % Inh. @ 1 uM; for Kb: second value of IC50/Kb cell
T1 construct: expressed in transfected cells; host or cells: CHO cells (G418 selection)
T1 sequence (O43613 1-425): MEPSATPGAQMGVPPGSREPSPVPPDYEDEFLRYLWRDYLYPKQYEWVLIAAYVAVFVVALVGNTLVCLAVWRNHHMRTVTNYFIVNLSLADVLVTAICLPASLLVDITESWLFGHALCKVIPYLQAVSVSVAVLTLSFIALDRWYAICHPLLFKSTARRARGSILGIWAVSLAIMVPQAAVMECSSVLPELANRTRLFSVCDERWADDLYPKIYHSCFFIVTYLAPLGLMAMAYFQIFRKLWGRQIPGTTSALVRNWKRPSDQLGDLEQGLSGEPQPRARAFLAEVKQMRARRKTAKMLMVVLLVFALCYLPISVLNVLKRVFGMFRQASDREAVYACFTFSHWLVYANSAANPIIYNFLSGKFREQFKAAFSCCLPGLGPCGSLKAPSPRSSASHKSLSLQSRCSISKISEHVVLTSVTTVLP
How it was run: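 CHO cells expressing the human orexin receptor were loaded with 3 μM fluo-4 AM plus 5 mM probenecid, then exposed to antagonist for 120 min before 3 nM orexin-A (final) was added on a FLIPR.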

[2] = target: T2, human orexin-2 receptor (OX2R) (Homo sapiens, UniProt O43614); assay: as above; assay type: cell-based; details: for inhibition at 1 µM: read-out: OX2R, % Inh. @ 1 uM; for IC50: first value of IC50/Kb cell; for Kb: second value of IC50/Kb cell
T2 construct: expressed in transfected cells; host or cells: CHO cells (G418 selection)
T2 sequence (O43614 1-444): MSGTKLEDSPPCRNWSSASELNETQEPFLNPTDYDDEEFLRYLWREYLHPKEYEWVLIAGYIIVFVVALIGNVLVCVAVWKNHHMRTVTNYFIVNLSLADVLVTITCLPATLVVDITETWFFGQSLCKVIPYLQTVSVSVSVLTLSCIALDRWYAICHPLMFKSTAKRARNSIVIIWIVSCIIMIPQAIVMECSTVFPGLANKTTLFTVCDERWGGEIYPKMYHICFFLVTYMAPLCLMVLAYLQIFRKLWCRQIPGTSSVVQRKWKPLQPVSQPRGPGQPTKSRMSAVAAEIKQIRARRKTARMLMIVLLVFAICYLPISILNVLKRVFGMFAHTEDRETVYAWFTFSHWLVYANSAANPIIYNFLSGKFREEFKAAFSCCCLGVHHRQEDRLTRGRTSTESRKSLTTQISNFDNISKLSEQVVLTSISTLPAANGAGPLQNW
How it was run: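 CHO cells stably expressing human OX1R or OX2R, loaded with fluo-4 AM (3 μM, 5 mM probenecid) for 50 min at 37 °C, then 30 min at RT. Antagonist preincubated 120 min before 3 nM orexin-A; FLIPR fluorescence peak height vs vehicle gives IC50, possibly normalized to on-plate reference; geometric mean of repeats.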

[3] = target: T3, human k-opioid receptor (kOR) (Homo sapiens, UniProt P41145); assay: Human k-opioid (KOP) receptor (agonist radioligand [3H]U-69593) binding assay, transfected RBL cell membranes; details: for inhibition at 1 µM: read-out: KOR % Inh. @ 1 uM; for IC50: first value of IC50/Ki cell; for Ki: second value of IC50/Ki cell
T3 construct: expressed in transfected cells; host or cells: RBL cells (membrane homogenates)
T3 sequence (P41145 whole entry): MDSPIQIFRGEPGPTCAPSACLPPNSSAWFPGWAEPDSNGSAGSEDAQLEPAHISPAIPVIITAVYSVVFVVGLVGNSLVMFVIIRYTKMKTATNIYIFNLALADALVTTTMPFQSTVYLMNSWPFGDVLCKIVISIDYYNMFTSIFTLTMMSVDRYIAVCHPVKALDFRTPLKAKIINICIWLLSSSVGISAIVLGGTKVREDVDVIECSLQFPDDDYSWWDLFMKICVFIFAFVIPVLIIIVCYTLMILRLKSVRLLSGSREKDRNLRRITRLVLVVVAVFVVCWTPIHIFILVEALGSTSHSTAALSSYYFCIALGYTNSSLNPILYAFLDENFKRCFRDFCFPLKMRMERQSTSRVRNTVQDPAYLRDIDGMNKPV
Description: Human k-Opioid (KOP) Receptor (Agonist Radioligand) Binding Assay
Purpose: Evaluation of the affinity of compounds for the human k-opioid receptor in transfected RBL cells determined in a radioligand binding assay.
Experimental protocol: Cell membrane homogenates (about 80 μg protein) are incubated for 60 min at 22° C. with 0.5 nM [3H]U-69593 in the absence or presence of the test compound in a buffer containing 50 mM Tris-HCl (pH 7.4), 10 mM MgCl2 and 1 mM EDTA. Nonspecific binding is determined in the presence of 10 μM naloxone. Following incubation, the samples are filtered rapidly under vacuum through glass fiber filters ([…], Packard) presoaked with 0.3% PEI and rinsed several times with ice-cold 50 mM Tris-HCl using a 96-sample cell harvester (Unifilter, Packard). The filters are dried then counted for radioactivity in a scintillation counter (Topcount, Packard) using a scintillation cocktail (Microscint 0, Packard). The results are expressed as a percent inhibition of the control radioligand specific binding. The standard reference compound is U-50488, which is tested in each experiment at several concentrations to obtain a competition curve from which its IC50 is calculated.

O=C(c1c(-c2ccccc2)nn2c1COCC2)N1CCCC[C@H]1COc1ccc(C(F)(F)F)cn1 [Example 46]
IC50 [1]: 7 nM | inhibition at 1 µM [1]: 94.8% | Kb [1]: 1 nM | inhibition at 1 µM [2]: 25.3% | inhibition at 1 µM [3]: 38%

O=C(c1c(-c2ccc(F)cc2)nn2ccccc12)N1CCC[C@H]1Cn1ccc(-c2ccc(F)cc2)n1 [Example 55]
OX1R, % Inh. @ 1 uM [1]: 100% | IC50 [1]: 5 nM | Kb [1]: 1 nM | OX2R, % Inh. @ 1 uM [2]: 93% | IC50 [2]: 33 nM | Kb [2]: 5 nM | KOR % Inh. @ 1 uM [3]: 66% | IC50 [3]: 480 nM | Ki [3]: 260 nM

O=C(c1c(-c2ccc(F)cc2)nn2ccccc12)N1CCC[C@H]1Cn1ccc(-c2ccc(C(F)(F)F)cc2)n1 [Example 56]
OX1R, % Inh. @ 1 uM [1]: 59% | IC50 [1]: 576 nM | Kb [1]: 121 nM | OX2R, % Inh. @ 1 uM [2]: 12% | KOR % Inh. @ 1 uM [3]: 76% | IC50 [3]: 450 nM | Ki [3]: 250 nM

O=C(c1c(-c2ccccc2)nn2c1COCC2)N1CCC[C@H]1Cn1ccc(-c2ccc(F)cc2)n1 [Example 57]
OX1R, % Inh. @ 1 uM [1]: 73% | IC50 [1]: 65 nM | Kb [1]: 14 nM | OX2R, % Inh. @ 1 uM [2]: 52% | IC50 [2]: 773 nM | Kb [2]: 107 nM | KOR % Inh. @ 1 uM [3]: 76% | IC50 [3]: 440 nM | Ki [3]: 240 nM

O=C(c1c(-c2ccccc2)nn2ccccc12)N1CCC[C@H]1Cn1ccc(-c2ccc(F)cc2)n1 [Example 59]
OX1R, % Inh. @ 1 uM [1]: 91% | IC50 [1]: 4 nM | Kb [1]: 0.7 nM | OX2R, % Inh. @ 1 uM [2]: 99% | IC50 [2]: 11 nM | Kb [2]: 2 nM | KOR % Inh. @ 1 uM [3]: 56% | IC50 [3]: 470 nM | Ki [3]: 260 nM

O=C(c1c(-c2ccccc2)nn2ccccc12)N1CCC[C@H]1Cn1ccc(-c2ccc(C(F)(F)F)cc2)n1 [Example 60]
OX1R, % Inh. @ 1 uM [1]: 78% | IC50 [1]: 106 nM | Kb [1]: 22 nM | OX2R, % Inh. @ 1 uM [2]: 37% | KOR % Inh. @ 1 uM [3]: 63% | IC50 [3]: 390 nM | Ki [3]: 210 nM

O=C(c1c(-c2ccc(F)cc2)nc2ccccn12)N1CCC[C@H]1Cn1ccc(-c2ccc(F)cc2)n1 [Example 61]
OX1R, % Inh. @ 1 uM [1]: 85% | IC50 [1]: 29 nM | Kb [1]: 6 nM | OX2R, % Inh. @ 1 uM [2]: 73% | IC50 [2]: 76 nM | Kb [2]: 10 nM | KOR % Inh. @ 1 uM [3]: 74% | IC50 [3]: 280 nM | Ki [3]: 150 nM

O=C(c1c(-c2ccccc2F)nc2ccccn12)N1CCC[C@H]1Cn1ccc(-c2ccc(F)cc2)n1 [Example 62]
OX1R, % Inh. @ 1 uM [1]: 96.96% | IC50 [1]: 6 nM | Kb [1]: 1 nM | OX2R, % Inh. @ 1 uM [2]: 85.23% | IC50 [2]: 26 nM | Kb [2]: 4 nM | KOR % Inh. @ 1 uM [3]: 79% | IC50 [3]: 200 nM | Ki [3]: 110 nM

O=C(c1c(-c2ccccc2F)nn2ccccc12)N1CCC[C@H]1Cn1ccc(-c2ccc(F)cc2)n1 [Example 63]
OX1R, % Inh. @ 1 uM [1]: 98% | IC50 [1]: 4 nM | Kb [1]: 0.8 nM | OX2R, % Inh. @ 1 uM [2]: 100% | IC50 [2]: 6 nM | Kb [2]: 0.9 nM | KOR % Inh. @ 1 uM [3]: 75% | IC50 [3]: 280000 nM

O=C(c1c(-c2ccccc2F)nn2ccccc12)N1CCC[C@H]1COc1ccc(C(F)(F)F)cn1 [Example 64]
IC50 [1]: 11 nM | inhibition at 1 µM [1]: 81% | Kb [1]: 2 nM | IC50 [2]: 275 nM | inhibition at 1 µM [2]: 67% | Kb [2]: 38 nM | inhibition at 1 µM [3]: 37%

O=C(c1c(-c2ccccc2F)nc2ccccn12)N1CCC[C@H]1COc1ccc(C(F)(F)F)cn1 [Example 65]
IC50 [1]: 53 nM | inhibition at 1 µM [1]: 64% | Kb [1]: 11 nM | inhibition at 1 µM [2]: 41% | inhibition at 1 µM [3]: 11%

O=C(c1c(-c2ccccc2F)nn2c1COCC2)N1CCC[C@H]1Cn1ccc(-c2ccc(F)cc2)n1 [Example 66]
OX1R, % Inh. @ 1 uM [1]: 84% | IC50 [1]: 33 nM | Kb [1]: 7 nM | OX2R, % Inh. @ 1 uM [2]: 68% | IC50 [2]: 131 nM | Kb [2]: 18 nM | KOR % Inh. @ 1 uM [3]: 77% | IC50 [3]: 220 nM | Ki [3]: 120 nM

O=C(c1c(-c2ccccc2F)nn2ccccc12)N1CCC[C@H]1Cn1ccc(-c2ccccn2)n1 [Example 67]
IC50 [1]: 13 nM | inhibition at 1 µM [1]: 100% | Kb [1]: 3 nM | IC50 [2]: 20 nM | inhibition at 1 µM [2]: 74% | Kb [2]: 4 nM | inhibition at 1 µM [3]: 27%

O=C(c1c(-c2ccccc2F)nn2ccccc12)N1CCC[C@H]1Cn1cc(-c2ccccn2)cn1 [Example 68]
IC50 [1]: 47 nM | inhibition at 1 µM [1]: 82% | Kb [1]: 10 nM | IC50 [2]: 170 nM | inhibition at 1 µM [2]: 64% | Kb [2]: 30 nM | inhibition at 1 µM [3]: 48%

O=C(c1c(-c2ccccc2)nc2ccc(F)cn12)N1CCC[C@H]1Cn1ccc(-c2ccccn2)n1 [Example 73]
IC50 [1]: 9 nM | inhibition at 1 µM [1]: 82% | Kb [1]: 2 nM | inhibition at 1 µM [2]: 48% | inhibition at 1 µM [3]: 37%

O=C(c1c(-c2ccccc2)nc2cc(C(F)(F)F)ccn12)N1CCC[C@H]1Cn1ccc(-c2ccccn2)n1 [Example 78]
IC50 [1]: 160 nM | inhibition at 1 µM [1]: 78% | Kb [1]: 34 nM | IC50 [2]: 270 nM | inhibition at 1 µM [2]: 55% | Kb [2]: 48 nM | inhibition at 1 µM [3]: 52%

O=C(c1c(-c2ccccc2F)nn2ccccc12)N1CCC[C@H]1Cn1cc(-c2ccc(F)cn2)cn1 [Example 82]
IC50 [1]: 220 nM | inhibition at 1 µM [1]: 85% | Kb [1]: 10 nM | IC50 [2]: 46 nM | inhibition at 1 µM [2]: 74% | Kb [2]: 10 nM | inhibition at 1 µM [3]: 33%

Reference: patent US20260070922A1, “PYRAZOLE AND IMIDAZOLE DERIVATIVES AS DUAL OREXIN AND KAPPA-OPIOID RECEPTORS MODULATORS COMPOSITION, METHODS FOR TREATING NEUROLOGICAL AND PSYCHIATRIC DISORDERS” (HAGER BIOSCIENCES, LLC, priority 2022, published 2026)
